The NIST ThermoML archive (doi:10.1016/j.jct.2005.07.009)
± gives the expanded uncertainty stated by the source.

Key:
[1] = excess molar enthalpy (molar enthalpy of mixing); xn = mol fraction of the nth substance listed; details: 298.15 K, 101 kPa, Liquid
[2] = xn = mol fraction of the nth substance listed; details: 298.15 K, 101 kPa, Liquid, Vibrating tube method

BrCCCBr [1,3-dibromopropane] + CCCCC(=O)OCC
Details | excess molar enthalpy [kcal/mol] | mass density [kg/m3]
[1], x2 = 0.0175 | 0.00339 ± 0.00043 | –
[1], x2 = 0.0382 | 0.00617 ± 0.000478 | –
[1], x2 = 0.0611 | 0.00844 ± 0.000502 | –
[1], x2 = 0.0911 | 0.00906 ± 0.000502 | –
[1], x2 = 0.1259 | 0.00923 ± 0.000526 | –
[1], x2 = 0.1645 | 0.00882 ± 0.000502 | –
[1], x2 = 0.205 | 0.00784 ± 0.000502 | –
[1], x2 = 0.247 | 0.00564 ± 0.000454 | –
[1], x2 = 0.2878 | 0.00201 ± 0.000406 | –
[1], x2 = 0.3293 | -0.00241 ± 0.000406 | –
[1], x2 = 0.3706 | -0.00626 ± 0.000478 | –
[1], x2 = 0.4062 | -0.00927 ± 0.000526 | –
[1], x2 = 0.4471 | -0.0122 ± 0.000574 | –
[1], x2 = 0.4985 | -0.0154 ± 0.000645 | –
[1], x2 = 0.5544 | -0.017 ± 0.000669 | –
[1], x2 = 0.6183 | -0.0182 ± 0.000693 | –
[1], x2 = 0.6862 | -0.0188 ± 0.000717 | –
[1], x2 = 0.7558 | -0.0182 ± 0.000693 | –
[1], x2 = 0.8251 | -0.0156 ± 0.000645 | –
[1], x2 = 0.8833 | -0.0117 ± 0.000574 | –
[1], x2 = 0.946 | -0.00602 ± 0.000478 | –
[2], x2 = 0.0408 | – | 1905.88 ± 1.2
[2], x2 = 0.0868 | – | 1836.07 ± 1.4
[2], x2 = 0.1296 | – | 1773.38 ± 1.4
[2], x2 = 0.177 | – | 1707.11 ± 1.6
[2], x2 = 0.273 | – | 1579.99 ± 1.8
[2], x2 = 0.325 | – | 1515.4 ± 1.9
[2], x2 = 0.3803 | – | 1449.57 ± 1.9
[2], x2 = 0.437 | – | 1385.12 ± 2
[2], x2 = 0.5197 | – | 1296 ± 2.1
[2], x2 = 0.6902 | – | 1128.6 ± 2.2
[2], x2 = 0.7601 | – | 1065.64 ± 2.3
[2], x2 = 0.8344 | – | 1001.96 ± 2.3
[2], x2 = 0.9163 | – | 935.2 ± 2.3

BrCCCCCCBr [1,6-dibromohexane] + CCOC=O
Details | excess molar enthalpy [kcal/mol] | mass density [kg/m3]
[1], x2 = 0.1027 | 0.00447 ± 0.000454 | –
[1], x2 = 0.2124 | 0.127 ± 0.00335 | –
[1], x2 = 0.3116 | 0.161 ± 0.00406 | –
[1], x2 = 0.4024 | 0.181 ± 0.00454 | –
[1], x2 = 0.4766 | 0.19 ± 0.00478 | –
[1], x2 = 0.547 | 0.19 ± 0.00478 | –
[1], x2 = 0.6032 | 0.183 ± 0.00478 | –
[1], x2 = 0.6673 | 0.169 ± 0.0043 | –
[1], x2 = 0.7137 | 0.154 ± 0.00406 | –
[1], x2 = 0.7608 | 0.136 ± 0.00359 | –
[1], x2 = 0.8062 | 0.112 ± 0.00287 | –
[1], x2 = 0.852 | 0.0893 ± 0.00239 | –
[1], x2 = 0.8953 | 0.0643 ± 0.00179 | –
[1], x2 = 0.9357 | 0.0394 ± 0.0012 | –
[1], x2 = 0.9691 | 0.0193 ± 0.000741 | –
[2], x2 = 0.1144 | – | 1557.48 ± 2.6
[2], x2 = 0.2023 | – | 1519.96 ± 2.7
[2], x2 = 0.2923 | – | 1477.74 ± 2.8
[2], x2 = 0.3593 | – | 1443.52 ± 2.8
[2], x2 = 0.5084 | – | 1357.33 ± 2.9
[2], x2 = 0.571 | – | 1316.38 ± 2.9
[2], x2 = 0.6288 | – | 1275.6 ± 2.9
[2], x2 = 0.6788 | – | 1237.72 ± 2.8
[2], x2 = 0.7728 | – | 1159.02 ± 2.8
[2], x2 = 0.8233 | – | 1112.18 ± 2.7
[2], x2 = 0.8545 | – | 1081.46 ± 2.7
[2], x2 = 0.9003 | – | 1033.41 ± 2.6

CCCCC(=O)OCC [ethyl pentanoate] + BrCCBr
Details | excess molar enthalpy [kcal/mol] | mass density [kg/m3]
[1], x1 = 0.0286 | 0.00476 ± 0.000454 | –
[1], x1 = 0.0632 | 0.0075 ± 0.000478 | –
[1], x1 = 0.103 | 0.00966 ± 0.000526 | –
[1], x1 = 0.1465 | 0.0103 ± 0.000526 | –
[1], x1 = 0.1918 | 0.0102 ± 0.000526 | –
[1], x1 = 0.2375 | 0.00848 ± 0.000502 | –
[1], x1 = 0.2837 | 0.00418 ± 0.00043 | –
[1], x1 = 0.3283 | -0.00098 ± 0.000382 | –
[1], x1 = 0.3711 | -0.00485 ± 0.000454 | –
[1], x1 = 0.4026 | -0.00825 ± 0.000502 | –
[1], x1 = 0.4465 | -0.0112 ± 0.00055 | –
[1], x1 = 0.4938 | -0.0142 ± 0.000621 | –
[1], x1 = 0.5538 | -0.0165 ± 0.000669 | –
[1], x1 = 0.6297 | -0.0178 ± 0.000693 | –
[1], x1 = 0.7132 | -0.0175 ± 0.000693 | –
[1], x1 = 0.8085 | -0.0143 ± 0.000621 | –
[1], x1 = 0.9099 | -0.00844 ± 0.000502 | –
[2], x1 = 0.0379 | – | 2085.1 ± 1.3
[2], x1 = 0.0766 | – | 2004.73 ± 1.4
[2], x1 = 0.1567 | – | 1851.43 ± 1.6
[2], x1 = 0.1993 | – | 1776.2 ± 1.7
[2], x1 = 0.2427 | – | 1703.76 ± 1.8
[2], x1 = 0.2945 | – | 1622.25 ± 1.8
[2], x1 = 0.3695 | – | 1512.8 ± 1.9
[2], x1 = 0.5222 | – | 1317.39 ± 2.1
[2], x1 = 0.6601 | – | 1166.3 ± 2.2
[2], x1 = 0.7313 | – | 1096.12 ± 2.2
[2], x1 = 0.8119 | – | 1022.28 ± 2.3
[2], x1 = 0.9074 | – | 941.5 ± 2.3
